Assay results from patent publication US8513202B2, “Crystalline form of 1-(β-D-glucopyranosyl)-4-methyl-3-[5-(4-fluorophenyl)-2-thienylmethyl]benzene hemihydrate” (Mitsubishi Tanabe Pharma Corporation, priority 2006, dated 2013).

Assay: stability of the crystalline form compared with the amorphous form
Type: physicochemical
Conditions: compared with the amorphous form of the compound of formula (I); test conditions not given

Compound: Cc1ccc([C@@H]2O[C@H](CO)[C@@H](O)[C@H](O)[C@H]2O)cc1Cc1ccc(-c2ccc(F)cc2)s1 [1-(β-D-glucopyranosyl)-4-methyl-3-[5-(4-fluorophenyl)-2-thienylmethyl]benzene hemihydrate]
- stability: more stable than the amorphous form
